Experiments:
Nannochloropsis culture = assay: Nannochloropsis growth in F2 media in seawater, optical density at 680 and 750 nm; format: cell-based; conditions: for IC50: 144 h, read-out: concentration that inhibited Nannochloropsis growth by approximately fifty percent (50%); for effect on Nannochloropsis growth: various concentrations, F2 media in seawater, after approximately six days, optical density 680 and 750 nm
Experimental: (§1) According to one exemplary method, thirty (30) microliters of a Nannochloropsis culture was introduced into seven (7) milliliters of F2 media in seawater. The mixture was distributed evenly between six well plates. Glyphosate was added at various concentrations. Additional well plates were inoculated with the same Nannochloropis culture, however, the well plates were not treated with glyphosate. After approximately six days, optical density measurements at both 680 and 750 nanometers were taken in triplicate for each of the various glyphosate concentrations.
as §1, with “were inoculated” for “was introduced”, “Ammonium chloride” for “Glyphosate”, “but” for “however, the well plates”, “ammonium chloride.” for “glyphosate.”, “ammonium chloride” for “glyphosate”
as §1, with “were inoculated” for “was introduced”, “Ammonium hydroxide” for “Glyphosate”, “Nannochloropsis” for “Nannochloropis”, “but” for “however, the well plates”, “ammonium hydroxide.” for “glyphosate.”, “ammonium hydroxide” for “glyphosate”
as §1, with “Glufosinate” for “Glyphosate”, “Nannochloropsis” for “Nannochloropis”, “glufosinate.” for “glyphosate.”, “glufosinate” for “glyphosate”

Dunaliella culture = assay: Dunaliella growth in F2 media in seawater, optical density at 680 and 750 nm; format: cell-based; conditions: for effect on Dunaliella growth: various concentrations, F2 media in seawater, after approximately six days, optical density 680 and 750 nm
Experimental: as §1, with “a Dunaliella” for “a Nannochloropsis”, “culture were inoculated” for “culture was introduced”, “media within” for “media in”, “same Dunaliella” for “same Nannochloropis”, “culture, but” for “culture, however, the well plates”
(§2) According to one exemplary method, thirty (30) microliters of a Dunaliella culture were inoculated into seven (7) milliliters of F2 media in seawater. The mixture was distributed evenly between six well plates. Ammonium chloride was added at various concentrations. Additional well plates were inoculated with the same Dunaliella culture, but were not treated with ammonium chloride. After approximately six days, optical density measurements at both 680 and 750 nanometers were taken in triplicate for each of the various ammonium chloride concentrations.
as §2, with “hydroxide” for “chloride”, “hydroxide.” for “chloride.”

SMILES | IC50 (Nannochloropsis culture) [µM] | effect on Nannochloropsis growth (Nannochloropsis culture) | effect on Dunaliella growth (Dunaliella culture) | IC50 (Dunaliella culture; 144 h, read-out: concentration that inhibited Dunaliella growth by approximately fifty percent (50%)) [mM]
CP(=O)(O)CCC(N)C(=O)O (stereo not shown) [glufosinate] | ~25 | controlled (inhibited) Nannochloropsis growth | – | –
N [ammonium hydroxide] | – | did not inhibit Nannochloropsis growth | did not inhibit Dunaliella growth | –
Cl.N [ammonium chloride] | – | did not inhibit Nannochloropsis growth | did not inhibit Dunaliella growth | –
O=C(O)CNCP(=O)(O)O [glyphosate] | ~800 | controlled (inhibited) Nannochloropsis growth | inhibited Dunaliella growth | ~1.2

— patent publication US20100022393A1, “Glyphosate applications in aquaculture” (priority 2008, published 2010)
